Test results published in patent publication US7994326B2 (Northwestern University, priority 2003, dated 2011).
Where two headings read alike, the source gives them in different places.

How the values were obtained:
Format in all cases: biochemical
bovine eNOS = molecular target: T1, bovine eNOS (Bos taurus, UniProt P29473); assay: NOS enzyme inhibitory assay (hemoglobin capture), eNOS; details: for IC50: bovine eNOS, 10 μM L-arginine, * = no inhibition observed up to the concentration listed
T1 construct: made in house; host or cells: E. coli (plasmid Bov-eNOSpCW)
Description: (§1) All of the NOS isoforms used were recombinant enzymes overexpressed in E. coli from different sources. Nitric oxide formation from NOS was monitored by the hemoglobin capture assay as described in the literature.
Expression of bovine eNOS: An overnight culture of Bov-eNOSpCW was used to inoculate 0.5 liter (in a 2.8-liter Fernbach flask) of modified TB (20 g of yeast extract, 10 g of bacto-tryptone, 2.65 g of KH2PO4, 4.33 g of Na2HPO4 and 4 ml of glycerol per liter) containing ampicillin ([…]) and chloramphenicol ([…]). The cultures were grown to an OD600 of z0.8 at 22° C. (200 rpm) and induced with 0.5 mM IPTG. One hour before IPTG induction, d-aminolevulinic acid (0.5 mM final) was added and, at the time of IPTG induction, riboflavin ([…]) and ATP (1 mM final) were also added. After induction, the flasks were kept in the dark at 22° C. (200 rpm). The cells were harvested 48 h after induction, and the cell pellet was frozen at −80° C. until purification was carried out.
Purification of bovine eNOS. The purification was typically carried out with eNOS from 2 liters of E. coli culture. The eNOS protein was purified using a modification of the published protocol for nNOS (14). The cells were resuspended in buffer C [50 mM Tris-Cl, pH 7.8, 1 mM EDTA, 1 mM DTT, 10% glycerol (v/v), 150 mM NaCl, 0.1 mM phenylmethylsulfonyl fluoride, […]], lysed by pulsed sonication and then centrifuged to sediment the cell debris. The supernatant was applied to a 2′,5′-ADP Sepharose 4B column equilibrated in buffer D [50 mM Tris-Cl, pH 7.8, 0.1 mM EDTA, 0.1 mM dithiothreitol, 150 mM NaCl, 10% glycerol (v/v)]. The column was washed with 20 column volumes of buffer B and again with 20 column volumes of buffer B containing 600 mM NaCl. Finally, protein was eluted with buffer B containing 600 mM NaCl and 5 mM 2′-AMP. The fractions were screened for absorption in the Soret region (A400) and hemoprotein-containing fractions were pooled and concentrated (Centriprep 50, Amicon). Repeated dilution/concentration [50 mM Tris-Cl, pH 7.8, 0.1 mM EDTA, 0.1 mM dithiothreitol, 10% glycerol (vol/vol)] was used to reach a final concentration of 150 mM NaCl and commensurately reduce the 2′-AMP content. […] The purified eNOS is stored in the presence of 1 mM L-arginine.
eNOS washing: eNOS contains a significant amount of L-arginine, which will interfere with the enzyme assay. The L-arginine can be removed by several dilution and concentration steps using an Amico concentrator. The dilution buffer is 10 ml Tris-HCl 50 mM containing 0.1 mM EDTA, 400 mM NaCl, 10% glycerol and 1 mM beta-mercaptoethanol. The above dilution and concentration operation was repeated three times to give purified eNOS.
(§2) Nitric oxide formation from NOS was monitored by the hemoglobin capture assay as described previously. (Hevel, J. M.; Marletta, M. A. Nitric Oxide Synthase Assays. Methods Enzymol. 1994, […], 250-258).
(§3) The selectivity of an inhibitor is defined as the ratio of the respective Ki values.

rat nNOS = molecular target: T2, rat nNOS (Rattus norvegicus, UniProt P29476); assay: NOS enzyme inhibitory assay (hemoglobin capture), nNOS; details: Table 1a; for Selectivity n/e: Ki(eNOS)/Ki(nNOS); for Selectivity n/i: Ki(iNOS)/Ki(nNOS); for Ki: apparent Ki calculated from IC50, Km […], read-out: calc. Ki nNOS; for IC50: rat nNOS, 10 μM L-arginine
T2 construct: made in house; host or cells: E. coli (plasmid pCWnNOS)
Description: as §1
After approximately 48 h of post-induction incubation in the dark at 25° C. the cells were pelleted at 5300×g, transferred to 50 mL conical tubes, and stored at −80° C.
nNOS purification: Cell pellets from 2.0 L of culture were resuspended in sonication Buffer A (50 mM Tris Base Buffer, pH 8.0, 10% glycerol), 2 mg/ml lysozyme. 0.5 mM L-arginine. 1 mM EDTA, 0.1 mM PMSF, 1 µg/ml antipain, and 1 μM each of leupeptin, […], and […]) and lysed by sonication. Centrifugation for 1 h at 100000×g yielded supernatant which contained nNOS active enzyme. The supernatant was brought to 2 mM CaCl2 and the protein was loaded onto a 15 ml calmodulin-Sepharose column equilibrated with Buffer A containing 2 mM CaCl2. The column was washed with 100 ml Buffer B (50 mM Hepes, 5 mM DTT, and […]) containing 2 mM CaCl2, 0.5 mM L-arginine, and 10 μM BH4, and eluted with 30 ml Buffer B supplemented with 0.3 M NaCl, 5 mM EGTA, 0.5 mM L-arginine, and 10 μM BH4. The protein was then loaded onto a 5 ml 2′,5′-ADP-Sepharose column equilibrated with Buffer B supplemented with 0.3 M NaCl, 0.5 mM L-arginine, and 10 μM BH4. The column was washed with 25 ml Buffer B containing 0.5 mM L-arginine and 10 μM BH4, and then 25 ml of Buffer B only supplemented with 10 μM BH4 (without L-arginine). Neuronal NOS was eluted with 20 ml Buffer B supplemented with 10 mM 2′(3′)-AMP, 10 μM BH4 and 0.3 M NaCl. The 20 ml eluent was then concentrated to 5 ml by ultrafiltration. The above concentration operation was repeated twice more with 10 ml Buffer B supplemented with 10 µM BH4 to give the purified neuronal NOS.
Nitric oxide formation from NOS was monitored by the hemoglobin capture assay as described previously.
as §3

murine iNOS = molecular target: T3, murine iNOS (Mus musculus, UniProt P29477); assay: NOS enzyme inhibitory assay (hemoglobin capture), iNOS; details: for IC50: murine iNOS, 10 μM L-arginine
T3 construct: made in house; host or cells: E. coli (plasmid pCWiNOS)
Text: as §1
Enzyme inhibitory assay. All of the NOS isoforms used are recombinant enzymes overexpressed in E. coli from different sources.
iNOS expression: An overnight culture of pCWiNOS was used to inoculate (1:100) larger cultures of Terrific Broth media (12 g/L tryptone, 24 g/L yeast extract, 4 mL/L glycerol, 17 mM KH2PO4, and 72 mM K2HPO4) containing 50 μg/mL ampicillin and 34 μg/mL chloramphenicol at 37° C. At an OD600 of ˜0.5, the culture was cooled to 25° C. and induced by the addition of 1 mM IPTG (final concentration). After approximately 24 h of growth at 25° C., the cells were pelleted at 5300×g, transferred to 50 mL conical tubes, and stored at −80° C.
iNOS purification: Cell pellets from 1.0 L of culture were resuspended in sonication buffer (50 mM Hepes, pH 7.4, 10% glycerol, 10 μg/mL benzamidine, 5 μg/mL leupeptin, 0.2 mM of PMSF, and 1 μg/mL each of pepstatin, chymostatin, and antipain) and lysed by sonication. Centrifugation for 20 min at 13000×g yielded supernatant which contained iNOS active enzyme. iNOS supernatant was loaded onto 1 g of a 2′,5′-ADP-Sepharose 4B resin column. The column was then washed with 20 ml iNOS purification buffer (10 mM K2HPO4, 10% glycerol, 0.5 mM L-arginine, pH 7.4) and 10 μM BH4. Inducible NOS was eluted with 30 ml iNOS purification buffer supplemented with 10 mM 2′(3′)-AMP, 10 μM BH4, and 0.3 M NaCl. The eluent was concentrated to 5 ml by ultrafiltration. The above concentration operation was repeated three times more with 10 ml Hepes buffer supplemented with 10 μM BH4, to give purified inducible NOS.
as §2, §3

[1] = Table 1a, apparent Ki calculated from IC50, Km 1.7 μM, read-out: calc. Ki eNOS
[2] = Table 1a, apparent Ki calculated from IC50, Km […], read-out: calc. Ki iNOS

SMILES | Ki (bovine eNOS; [1]) [µM] | IC50 (bovine eNOS; Table 1a) [µM] | Selectivity n/e (rat nNOS) | Selectivity n/i (rat nNOS) | Ki (rat nNOS) [µM] | IC50 (rat nNOS) [µM] | Ki (murine iNOS; [2]) [µM] | IC50 (murine iNOS; Table 1a) [µM] | Ki (bovine eNOS; Table 1b, read-out: Ki eNOS) [µM] | Ki (murine iNOS; Table 1b, read-out: Ki iNOS) [µM]
Cl.Cl.Nc1cccc(CC2CNCC2O)n1 (racemic) [Compound P-11] | 341 | 2350 | 49.11 | 3.64 | 6.94 | 60.3 | 25.2 | 56 | – | –
Cl.Cl.Cl.Nc1cccc(CC2CNCC2NCCCc2ccccc2)n1 (racemic) [Compound P-12] | 85.2 | 586 | 6.42 | 10.83 | 13.3 | 115 | 144 | 317 | – | –
CN(C)CCNC1CNCC1Cc1cccc(N)n1 (racemic) [Compound P-15] | 242 | 1660 | 15.41 | 19.65 | 15.7 | 136 | 308 | 679 | – | –
Nc1cccc(CC2CNCC2NCC(N)Cc2ccccc2)n1 (racemic) [Compound P-16] | > 1450 | > 10000 | >104.83 | 21.54 | 13.9 | 120 | 299 | 658 | – | –
Nc1cccc(CC2CNCC2NCC(N)Cc2ccccc2)n1 (racemic) [Compound P-17] | > 1450 | > 10000 | >70.64 | 20.25 | 20.6 | 179 | 417 | 919 | – | –
Nc1cccc(C[C@H]2CNC[C@@H]2NCCNCc2ccccc2)n1 (racemic) [Compound P-18] | – | > 70000 | >703.88 | 11.49 | 14.5 | 126 | 166 | 366 | – | –
Nc1cccc(CC2CNCC2NC2CCNC2)n1 (racemic) [Compound P-19] | 460 | 3170 | 22.00 | 12.11 | 20.9 | 182 | 253 | 559 | – | –
Nc1cccc(CC2CNCC2NC2CCNC2)n1 (racemic) [Compound P-20] | 625 | 4300 | 48.67 | 18.21 | 12.8 | 112 | 234 | 516 | – | –
Nc1cccc(CC2CNCC2NC2CCN(Cc3ccccc3)C2)n1 (racemic) [Compound P-21] | 171 | 1170 | 6.99 | 11.70 | 24.4 | 212 | 286 | 630 | – | –
Nc1cccc(CC2CNCC2NC2CCN(Cc3ccccc3)C2)n1 (racemic) [Compound P-22] | 109 | 748 | 6.07 | 11.66 | 17.9 | 156 | 209 | 461 | – | –
Cl.Cl.Cl.Nc1cccc(C[C@H]2CNC[C@H]2NCCCc2ccccc2)n1 (racemic) [Compound P-27] | 88.5 | 609 | 27.9 | 52.43 | 3.17 | 27.5 | 166 | 366 | – | –
CN(C)CCNC1CNCC1Cc1cccc(N)n1 (racemic) [Compound P-30] | 140 | 963 | 42.02 | 58.45 | 3.33 | 29 | 195 | 429 | – | –
Nc1cccc(CC2CNCC2NCC(N)Cc2ccccc2)n1 (racemic) [Compound P-31] | > 1450 | > 10000 | >600 | 98.27 | 2.42 | 21 | 238 | 524 | – | –
Cc1cc(N)nc(CC2CNCC2N(C)CCNCc2ccc(Cl)cc2)c1 (racemic) [Compound P-64] | – | – | – | – | – | – | – | – | 125 | –
Cc1cc(N)nc(C[C@H]2CNC[C@@H]2N(C)CCNCc2ccc(Cl)cc2)c1 (racemic) [Compound P-69] | – | – | – | – | – | – | – | – | 58.1 | –
Cc1cc(N)nc(C[C@H]2CNC[C@H]2OCC(=O)NCCc2cccc(F)c2)c1 (racemic) [Compound P-79, (±)-2-{cis-4-[(6-amino-4-methylpyridin-2-yl)methyl]pyrrolidin-3-yloxy}-N-(3-fluorophenethyl)acetamide] | – | – | – | – | – | – | – | – | 125 | 13
